Laboratory results reported in patent publication US20250320190A1, “Novel Inhibitors of Leucine Carboxyl Methyltransferase-1 (LCMT-1) and Methods of Use Thereof” (Temple University-Of The Commonwealth System of Higher …, priority 2024, published 2025).
Entries after “also recorded” stand apart in the source; their conditions may differ.

What was measured:
[1] = tested on: MCF7 cells; assay: Cytotoxicity assay (calcein-AM); type: cell-based, human; settings: MCF7, 48 hours
Procedure: HS-5, HEK-293, MCF7, MDA-MB-231 and Rosi cells were seeded in 96-well optical bottom tissue culture plates (Corning, New York) at a density of 2.5×10^3 cells/well. After 24 hours, the media were changed to media containing LB-100 (Cayman Chemical Company, Ann Arbor, Michigan) or Compound 2 at various concentrations (50-0.31 μM). Control cells were given fresh media. After 48 hours the media were aspirated and plates were washed with warmed Dulbecco's phosphate-buffered saline (DPBS) with calcium and magnesium (Sigma-Aldrich, catalog #D1283). Cells were stained with 3 μM calcein-AM (AAT Bioquest, Pleasanton, California, catalog #22002) in DPBS for 30 minutes in the dark at 37° C. Plates were immediately read with a Biotek fluorescent plate reader (excitation 485 nm, emission 520 nm). The cytotoxicity assays were performed at least three times, each time with six replicates per condition.

[2] = tested on: Rosi cells; assay: Colony forming assay; type: cell-based, human; settings: 50-3.25 μM, one week
Procedure: (§1) MCF7, MDA-MB-231 and Rosi cells were seeded in 96-well tissue culture plates (Celltreat, Pepperell, Massachusetts) at a density of 90 cells per well (Mayr et al. Int J Mol Sci. 2018; 19(3)). After 24 hours, the media were changed to media containing LB-100 or Compound 2 at various concentrations (50-3.25 μM). Control cells were given fresh media. After one week the media were aspirated and the wells were washed with PBS. Cells were stained with crystal violet solution (0.25 g crystal violet in 20% methanol) for 10 minutes. The wells were washed 6 times with PBS to remove excess crystal violet. Colonies were counted with an ECHO Revolve hybrid microscope at 1.5× magnification. There were ten replicates for each condition.

[3] = tested on: MDA-MB-231 cells; assay: Colony forming assay; type: cell-based, human; settings: 50-3.25 μM, one week
Procedure: as §1

[4] = biological target: T1, rhLCMT-1 (Homo sapiens, UniProt Q9UIC8); assay: rhLCMT-1 activity assay (dot immunoblot); type: biochemical; settings: each inhibitor 50 μM; 20 μM SAM; 37° C. for 30 minutes
T1 construct: purchased SignalChem (Richmond, British Columbia, Canada)
T1 sequence (Q9UIC8 whole entry): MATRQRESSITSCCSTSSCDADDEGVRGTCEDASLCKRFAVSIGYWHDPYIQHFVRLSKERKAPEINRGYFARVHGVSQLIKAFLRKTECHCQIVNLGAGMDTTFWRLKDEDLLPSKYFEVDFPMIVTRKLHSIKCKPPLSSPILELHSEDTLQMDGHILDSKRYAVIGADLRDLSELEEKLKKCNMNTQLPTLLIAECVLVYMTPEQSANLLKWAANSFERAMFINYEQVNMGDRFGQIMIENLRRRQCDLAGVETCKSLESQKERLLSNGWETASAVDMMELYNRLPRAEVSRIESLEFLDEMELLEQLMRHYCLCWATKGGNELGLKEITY
Procedure: Recombinant human LCMT-1 (rhLCMT-1) and rhPP2Ac were obtained from SignalChem (Richmond, British Columbia, Canada). Methyltransferase assays were performed with 100 ng rhLCMT-1 and 91.62 ng rhPP2Ac (2:1 molar ratio) (28) in reaction buffer containing 20 mM Tris (pH 8.0), 50 mM NaCl, 1 mM EDTA. rhLCMT-1 was incubated with Compound 1 (Chemspace, San Jose, California), Compound 2 (Akos Consulting and Solutions, Amtsgericht, Freiburg, Germany) or sinefungin, a SAM analogue, (Active Motif, Carlsbad, California), each at 50 μM final concentration, for 10 minutes at room temperature. rhPP2Ac was added to the reactions with 20 μM (final concentration) SAM (New England Biolabs, Ipswich, Massachusetts, FIG. 9). […] Reactions were incubated at 37° C. for 30 minutes (FIG. 10). Because the inhibitors gave false positive results with the secondary reactions used in colorimetric and bioluminescent methyltansferase assays, LCMT-1 activity was assessed using dot immunoblots. Reactions were applied to nitrocellulose membranes (Cytiva, Marlborough, Massachusetts). […] Membranes were treated with infrared (IR)-dye anti-mouse antibody (Li-Cor, Lincoln, Nebraska, catalog #926-32210, 1:20,000 dilution) and densities were measured with Li-Cor Image Studio (version 5.2) software. rhLCMT-1 inhibition assays were performed three times, each time with five replicates for each condition.

[5] = tested on: UM-SCC-12 cells; assay: Cell cycle analysis (BrdU) with and without irradiation; type: cell-based, human; settings: LCMT-li/irradiation combination vs irradiation alone
Procedure: (§2) Cells were treated with LCMT-li, radiotherapy or both as described for Annexin V assays. After 24 hours, cells were labeled with 50 μM bromodeoxyuridine (BrdU, BioGems, Westlake Village, California, catalog #5911439) for 4 hours. Cells were lifted with 0.25% trypsin, 2.21 mM ethylenediaminetetraacetic acid (EDTA) (Corning catalog #25-053-CI) after 4 hours and fixed with 70% ethanol overnight at −20° C. Cells were pelleted and permeabilized with 1 M HCl with 0.1% Triton X-100 for one minute. Cells were pelleted and cellular DNA was denatured with 2 M HCl. After neutralization with 1 M Tris, pH 8.5, cells were labeled with FITC-anti-BrdU (Biolegend, catalog #364104, 5 μL/100 μL cell suspension) and 7-aminoactinomycin-D (7-AAD, Biolegend, catalog #420404, 1 μL/100 μL cell suspension). Cells were washed with PBS with 10% FBS, and resuspended in PBS with 0.1% Triton X-100. Cells were analyzed with flow cytometry. Cell cycle analyses were performed twice with 12 replicates, 104 cells/replicate.

[6] = tested on: UM-SCC-49 cells; assay: as above; type: cell-based, human; settings: combination vs irradiation alone
Procedure: as §2

[7] = tested on: SCC-15 cells; assay: as above; type: cell-based, human; settings: in the presence of irradiation
Procedure: as §2

[8] = tested on: UM-SCC-14a cells; assay: as above; type: cell-based, human; settings: combination vs irradiation alone, listed as LCMT-li
Procedure: as §2

[9] = tested on: SCC-25 cells; assay: as above; type: cell-based, human
Procedure: as §2

[10] = tested on: UM-SCC-69 cells; assay: as above; type: cell-based, human
Procedure: as §2

[11] = tested on: Rosi cells; assay: Annexin V assay; type: cell-based, human; settings: 5-20 μM, 48 hours
Procedure: (§3) MCF7, MDA-MB-231 and Rosi cells were treated with LB-100 and Compound 2 at 5-20 μM concentrations. After 48 hours, cells were lifted with Accutase and washed twice with PBS (pH 7.4) with 10% FBS. Cells were resuspended in annexin V binding buffer (10 mM HEPES (pH 7.4), 140 mM NaCl and 2.5 mM CaCl2)) and labeled with FITC-anti-Annexin V and 7-AAD (Biolegend, FITC Annexin V Apoptosis Detection Kit with 7-AAD, catalog #640922). Cell surface annexin V expression was assessed with flow cytometry.

[12] = tested on: MDA-MB-231 cells; assay: Annexin V assay; type: cell-based, human; settings: 5-20 μM, 48 hours
Procedure: as §3

[13] = tested on: MCF7 cells; assay: Annexin V assay; type: cell-based, human; settings: 5-20 μM, 48 hours
Procedure: as §3

With `COC(=O)c1c(NC(=O)c2ccccc2C)sc(C(=O)Nc2cccc(C)c2)c1C` [Compound 2, methyl 4-methyl-2-[(2-methylbenzoyl)amino]-5-[[(3-methylphenyl)amino]carbonyl]-3-thiophenecarboxylate] the EC50 ([1]; Homo sapiens, read-out: Log [μM] EC50 (converted)) was 2.24 µM, the inhibition of survival ([1]; concentrations tested 50-0.31 μM) was “Neither LB-100 nor Compound 2 significantly inhibited survival” and the clonogenic colony formation [2] was “inhibited colony formation”. For the same compound, the clonogenic colony formation [3] was “inhibited colony formation”, the “methylation of rhPP2Ac by rhLCMT-1” value [4] was “inhibited methylation of rhPP2Ac to the same degree as the SAM analogue sinefungin” and the cell cycle effect [5] was “increased G2/M phase arrest”. The cell cycle effect [6] was “decreased G2/M phase arrest”, the cell cycle effect [7] was “induced G0/G1 as well as G2/M phase arrest” and the cell cycle effect [8] was “increased G0/G1 arrest; also recorded: decreased G2/M phase arrest”. The cell cycle effect ([9]; LCMT-li alone vs control cells) was “induced G2/M phase arrest”, the cell cycle effect ([9]; LCMT-li/irradiation combination vs irradiation alone) was “increased G2/M phase arrest” and the cell cycle effect ([10]; LCMT-li alone vs control cells) was “induced G0/G1 arrest”. The cell cycle effect ([10]; combination vs irradiation alone) was “decreased G2/M phase arrest”, the “apoptosis (cell surface annexin V expression)” value (from here on “apoptosis”) [11] was “did not induce apoptosis” and the “apoptosis” value [12] was “increased cell surface annexin V expression”. For the same compound, the “apoptosis” value [13] was “decreased cell surface annexin V”.
